Assay results from patent USRE37670E1, “Antiproliferative and neurotrophic molecules” (American Biogenetics Inc., priority 1994, dated 2002).

Assays:
[1] = Teratogenic activity; details: in vivo
Text: Nau, H. et al., Pharmacol. & Toxicol. (1991) 69:310-321.

[2] = system: mouse neuro-2a neuroblastoma cells; test: Antiproliferative assay, cell counting after 48 h; assay type: cell-based
Method: Neuro-2a neuroblastoma cells were cultured in 25 cm^2 flasks for 48 hours in the presence of test medium. After 48 hours, cells were observed, photographed and harvested with trypsin for counting using a haemocytometer. Cell number is expressed as percentage mean±SEM (n=3) of control values.
Accordingly, representative cells may be cultured in vitro in the presence of varying concentration of test compound. At an appropriate time, the cells under the different conditions are examined for the appropriate parameter (for example, cell number for antimitotic activity; neurite outgrowth for neurotrophic activity) and the ED50 may be determined.
Antiproliferative and neuroprotective actions should be sufficient to achieve the desired inhibition of mitosis or neuroprotection without serious hetaptotoxic side effects. […] Dose response curves may be determined first in vitro in a relevant animal model to determine ranges of expected therapeutic concentrations in humans. […] Other cell lines, including those of human origin may be used to assesses activity as well.
The mouse neuro-2a neuroblastoma cell line (Klebe and Ruddle, 1969 J. Cell Biol., 43:69A) was cultured in Dulbecco's modified Eagle's medium (DMEM; Flow Laboratories) supplemented with 10% fetal bovine serum (Tissue Culture Services), […] glutamine and 100 μg/ml of gentamicin or 100 units/ml and 100 μg/ml of penicillin/streptomycin antibiotics (Sigma Chemicals). The cells were maintained in a water-humidified atmosphere of 9% CO2at 37° C. Cells were passaged using 0.025% trypsin (Gibco) in DMEM, and were seeded at a density of 1×10^4 cells/cm^2.
Neuro-2a cells were seeded in 25cm^2 flasks (Costar) at a density of 1×10^4 cells/cm^2. Following a recovery period of 24 h, the agent to be examined was added to the cells in a vehicle of dimethyl sulphoxide (DMSO), the volume of which was 0.2% of the total volume of medium bathing the cells. A flask containing the DMSO vehicle alone was employed as control. Following incubation for 48h, cells were examined using an inverted phase contrast microscope (Leitz Diavert) and photographed (Ilford 50ASA film). Cells were then harvested by trypsinization and were counted using a haemocytometer (improved Neubauer model).

[3] = system: neuro-2a neuroblastoma cells; test: Neurite outgrowth / differentiation, scanning electron microscopy; assay type: cell-based, mouse; details: for neurite outgrowth: 48 hours
Method: Neuroblastoma cells were cultured in the presence of 2-n-butyl-4-pentynoic acid (1.0 mM, 2 mM); and 2-n-pentyl-pentynoic acid (0.3 mM, 0.5 mM). Test medium was added to cells after 24 hours in culture and maintained as a test medium for 48 hours after which they were fixed in 2.5% glutaraldehyde and […] sodium phosphate buffer overnight at 4° C. Cells were postfixed with osmium tetroxide and prepared for scanning microscopy as described.
The neurotrophic activity associated with valproate and its analogues may be determined based on in vitro indices of differentiation, including inhibition of mitosis, increase in neurite outgrowth, and NCAM expression. For example, the ability to promote neurite outgrowth is correlated with enhanced survival of certain cultured neural cells including embryonic sensory and sympathetic neurons. Proliferating immature neuroblasts, in vitro, have a rounded shape and are loosely adherent to culture surfaces. In the presence of a neurotrophic factor, these cells become more adherent and sprout processes known in the art as neurites. Accordingly, in vitro neurite outgrowth may be used as an assay for determining concentrations of compound in contact with target cells which would be expected to achieve desirable neuroprotecting effects.
Cells which were to be examined by scanning electron microscopy were grown as previously described in 25cm^2 flasks. Following 48 h exposure to the agent, cells were fixed in a solution of 2.5% glutaraldehyde in 0.1M sodium phosphate buffer, pH 7.4, overnight at 4° C. The cells were post-fixed subsequently in phosphate-buffered 1% osmium tetroxide for 1 h at room temperature, washed and were dehydrated gradually for 1 hour using a series of ethanol concentrations stepwise from 20, 40, 60, 80 to a final concentration 100%.
Sections of the base of the tissue culture flask were removed and were critical point dried to minimize shrinkage and cracking. This was achieved by placing the samples in a Polaron critical point dryer and purging the chamber several times with CO2 to remove all traces of ethanol. After 1 h the temperature and pressure were increased to 40° C. and 1200 lbs/in^2, respectively, at which stage the critical point for carbon dioxide had been reached and drying was completed.
Specimens were subsequently removed from the chamber, mounted on stubs suitable for scanning electron microscopy using conductive carbon cement (Neubauer) and were sputter coated with gold under vacuum (5×10^−2 torr) in the presence of argon gas at a current of 20 mA for 3 minutes (Polaron E5100). Following gold-coating, samples were examined in the scanning electron microscope (JEOL 35C) at an accelerating voltage of 15 kV.

[4] = system: Neural Cell Adhesion Molecule (NCAM) in neuro-2a neuroblastoma cells; test: NCAM immunofluorescence microscopy; assay type: cell-based, mouse; details: 1.0 mm; compared to control cells
Method: FIGS. 3A-1, 3A-2 and 3B: Neural Cell Adhesion Molecule (NCAM) immunofluorescence in neuro-2a neuroblastoma cells. […] Panel B. Neuroblastoma cells were cultured for 48 hours in the presence of increasing concentrations of 2-n-butyl-4-pentynoic acid and 2-n-pentyl-4-pentynoic acid. They were then fixed and prepared for staining with rabbit anti-NCAM antibody. A second anti-rabbit antibody conjugated to rhodamine was incubated with the cells to detect bound anti-NCAM antibody. […] Immunofluorescence is expressed as mean +/− SEM.
Cells were seeded in 24-well plates at a density of 1×10^4 cells/cm^2. Following a recovery period 24 h they were exposed for an additional 48 h to the drug under investigation. […] The cells were again washed three times with phosphate buffered saline pH 7.4 and were then mounted using Citifluor (Agar Scientific) containing a fluorescence enhancer. Fluorescence of rhodamine was visualized using an excitatory wavelength of 535 nm (Leica filter block N2.1) on a Leitz DMRB fluorescence microscope. Fluorescence intensity was examined at points of cell-cell contact using a Quantimet 500 Image Analysis System. Fluorescence intensity is expressed as grey level at points of cell contact relative to that observed in the control.

[5] = literature; cited from earlier work
[6] = experimental models; literature; cited from earlier work
[7] = human; literature; cited from earlier work
[8] = system: neural derived cell proliferation; details: literature; cited from earlier work

C#CCC(CC(C)C)C(=O)O (stereo not drawn)
teratogenic potency [1]: low | antiproliferative potency / activity [2]: low | prodifferentiative potency [3]: low

C#CCC(CCCCCC)C(=O)O (racemic) [2-n-hexyl-4-pentynoic acid, (±)-2-(2-propinyl)-Octanoic acid]
teratogenic potency [1]: most potent

C#CCC(CCCC)C(=O)O (stereo not drawn) [2-n-butyl-4-pentynoic acid]
teratogenic potency [1]: most potent | neurite outgrowth ([3]; 1.0 mM, 2 mM): Induction of neurite outgrowth

C#CCC(CCCCC)C(=O)O (stereo not drawn) [2-n-pentyl-4-pentynoic acid]
immunofluorescence directed against NCAM [4]: increased immunofluorescence | teratogenic potency [1]: most potent | neurite outgrowth ([3]; 0.3 mM, 0.5 mM): Induction of neurite outgrowth

C#CCC(CCC)C(=O)O (stereo not drawn) [2-n-propyl-4-pentynoic acid]
teratogenic potency [1]: most potent | teratogenic potency of S-enantiomer relative to R-enantiomer [5]: more potent

C=CCC(CCC)C(=O)O (stereo not drawn) [Example 4-en-VPA, 2-n-propyl-4-pentenoic acid]
teratogenic potency of S-enantiomer relative to R-enantiomer [5]: more potent

CC/C=C(\CCC)C(=O)O [IV]
anticonvulsant properties [6]: good | teratogenic activities [5]: very low or undetectable | antiproliferative potency / activity [2]: lowers, but does not abolish | cellular neurotrophic activity [3]: lowers, but does not abolish

C#CC[C@H](CCC)C(=O)O [S-2-n-propyl-4-pentynoic acid]
teratogenic potency of S-enantiomer relative to R-enantiomer [5]: significantly greater

CC#CCC(CCC)C(=O)O (stereo not drawn) [VI]
anticonvulsant properties [6]: good | teratogenic activities [5]: very low or undetectable | antiproliferative potency / activity [2]: lowers, but does not abolish | cellular neurotrophic activity [3]: lowers, but does not abolish

C/C=C\CC(CCC)C(=O)O (stereo not drawn) [V]
antiproliferative potency / activity [2]: lowers, but does not abolish | cellular neurotrophic activity [3]: lowers, but does not abolish

CCCC(CCC)C(=O)O [valproate, valproic acid]
transfer into the central nervous system [7]: very limited | antiproliferative action [8]: potently inhibit

CCCC(CCC)C(N)=O [valpromide]
antiproliferative action [8]: not antiproliferative | teratogenic activities [5]: non-teratogenic
